Assay results published in patent US20240245660A1, “METHODS OF TREATING GASTROINTESTINAL STROMAL TUMORS” (Deciphera Pharmaceuticals, LLC, priority 2022, published 2024).

Assays:
[1] = system: advanced gastrointestinal stromal tumor (GIST); experiment: Multicenter, global, randomized, open-label, phase 3 study of ripretinib versus sunitinib with baseline ctDNA analysis (Examples 1 and 5); assay type: in vivo, human; settings: for forest plot of ORR by KIT mutational status from baseline ctDNA: FIG. 11; for forest plot of OS by KIT exon 11 mutational subgroups from baseline ctDNA / forest plot of OS by KIT mutational status from baseline ctDNA: Interim Analysis 2; for forest plot of OS by KIT exon 11 mutational subgroups from baseline ctDNA: FIG. 14; for forest plot of ORR by KIT exon 11 mutational subgroups from baseline ctDNA: FIG. 12; for forest plot of OS by KIT mutational status from baseline ctDNA: FIG. 13; for median PFS by IRR: KIT mutations at exon 17/18, excluding KIT exons 9, 13, and/or 14, FIG. 4; for forest plot of PFS by KIT exon 11 mutational subgroups from baseline ctDNA: FIG. 10; for forest plot of PFS by KIT mutational status from baseline ctDNA: FIG. 9; for Median Progression-Free Survival (mPFS): patients with mutations in KIT exon 11 and 17 or 18 only (ctDNA; excluding exons 9, 13, 14), by IRR, ripretinib 150 mg QD or sunitinib 50 mg QD; for OS HR, ripretinib versus sunitinib (Cox model) / PFS HR, ripretinib versus sunitinib (Cox model): sex, and race
Method: This study is a multicenter, global, randomized, open-label, phase 3 study which enrolled adult patients with advanced gastrointestinal stromal tumor (GIST) who progressed on or had intolerance to imatinib. Randomization was 1:1 to ripretinib 150 mg once daily (QD) or sunitinib 50 mg once daily (QD) (4 weeks on/2 weeks off). Baseline peripheral whole blood was analyzed by Guardant360, a 74-gene circulating tumor DNA (ctDNA) next-generation sequencing (NGS)-based assay.
Of the 453 patients in the overall intent-to-treat population (ITT), baseline ctDNA analysis was performed in 362 patients for whom evaluable samples were available. ctDNA was detected in 280 samples and KIT mutations were detected in 213 patients. Primary mutations in KIT were detected in exon 11 in 157 patients and in exon 9 in 36 patients. Common resistance mutations in KIT were in exons 17/18 in 89 patients and exons 13/14 in 81 patients. In patients with a KIT exon 11 primary mutation, 52 patients had mutations in exon 17 or 18 only, 41 had mutations in exon 13 or 14 only, and 22 patients had mutations in both exon 13 or 14 and exon 17 or 18. […] Efficacy in patients with detectable ctDNA in KIT exon 11 and the ITT populations was consistent with the primary analysis based on tumor data used for randomization. The subgroup safety profiles were consistent with the primary analysis.
Cox proportional hazards analyses of PFS and OS were conducted to examine the interaction of treatment arm and mutational subgroup with or without adjustment for baseline characteristics in the study of Example 1.
(§1) With respect to PFS, a Cox model with the interaction effect was used and the Bonferroni adjustment was applied. […] The treatment effect was nominally significant in the KIT exon 11+13/14 and KIT exon 11+17/18 populations before and after performing the Bonferroni correction. […] The results were robust when accounting for multiple treatment comparisons across mutational subgroups.
as §1, with “OS,” for “PFS,”, “exon” for “exon 11+13/14 and KIT exon”, “population” for “populations”, “correction, but not in the KIT exon 11+13/14 population.” for “correction.”

[2] = system: gastrointestinal stromal tumors (GIST); experiment: Bridging study of second-line ripretinib versus sunitinib in GIST patients in China (Example 3); assay type: in vivo, human; settings: patients in China with KIT exon 11 and exon 17/18 mutations per tumor tissue ITT population; ripretinib 150 mg once daily or sunitinib 50 mg once daily; FIG. 16
Method: Results from a bridging study, with respect to the study of Example 1 above, of second-line administration of 150 mg once daily ripretinib, as compared to administration of 50 mg once daily sunitinib, in gastrointestinal stromal tumors (GIST) patients in China were obtained. In the study, 21 patients were determined to have mutations at KIT exon 11 and exon 17/18 per the tumor tissue ITT population. Progression-free survival (PFS) was determined with independent radiologic review using mRECIST. A Kaplan-Meier plot of PFS is provided as FIG. 16.

[3] = system: GISTs with KIT exon 11 primary mutations; settings: cited from earlier work
[4] = KIT exon 11 and 17 or 18 only (ctDNA), Data cut 1
[5] = KIT exon 11 and 17 or 18 only (ctDNA), Data cut 2
[6] = KIT exon 11 and exon 17/18, excluding exons 9, 13, and/or 14, extended interim analysis (Interim Analysis 2), FIG. 6
[7] = KIT exon 11 and exon 17/18, excluding exons 9, 13, and/or 14, interim analysis (Interim Analysis 1), FIG. 5
[8] = KIT exon 17/18, excluding exons 9, 13, and/or 14, extended interim analysis (Interim Analysis 2), FIG. 8
[9] = KIT exon 17/18, excluding exons 9, 13, and/or 14, interim analysis (Interim Analysis 1), FIG. 7
[10] = with adjustment for age, Any KIT exon 9 (n = 36)
[11] = with adjustment for age, KIT exon 11 + 13/14 + 17/18 only (n = 22)
[12] = with adjustment for age, KIT exon 11 + 13/14 only (n = 41)
[13] = with adjustment for age, KIT exon 11 + 17/18 only (n = 52)
[14] = with adjustment for age, KIT exon 11 only (n = 41)
[15] = with adjustment for age, Other KIT/PDGFRA (n = 29)
[16] = without adjustment for age, Any KIT exon 9 (n = 36)
[17] = without adjustment for age, KIT exon 11 + 13/14 + 17/18 only (n = 22)
[18] = without adjustment for age, KIT exon 11 + 13/14 only (n = 41)
[19] = without adjustment for age, KIT exon 11 + 17/18 only (n = 52)
[20] = without adjustment for age, KIT exon 11 only (n = 41)
[21] = without adjustment for age, Other KIT/PDGFRA (n = 29)

## CCN(CC)CCNC(=O)c1c(C)[nH]c(/C=C2\C(=O)Nc3ccc(F)cc32)c1C [sunitinib, reference compound]
[1]; KIT exon 9 mutations
  forest plot of ORR by KIT mutational status from baseline ctDNA: favors sunitinib treatment
[1]; KIT exon 11 and 13 or KIT exon 11 and 14 mutations
  forest plot of OS by KIT exon 11 mutational subgroups from baseline ctDNA: favors sunitinib treatment
[1]; [4]
  ORR: 0%
[1]; KIT exon 11 and 17 or 18 only (ctDNA), Data cut 1, listed as Sunitinib
  ORR: 0%
[1]; [5]
  OS: 17.5 months
[1]; [6]
  median OS: 17.5 months
[1]; [7]
  median OS: 16.9 months
[1]; KIT exon 11 in combination with KIT exon 13 only
  forest plot of ORR by KIT exon 11 mutational subgroups from baseline ctDNA: favors sunitinib treatment
[1]; KIT exon 13 and 14 mutations
  forest plot of OS by KIT mutational status from baseline ctDNA: favors sunitinib treatment
[1]; [8]
  median OS: 17.5 months
[1]; [9]
  median OS: 17.0 months
[1]
  median PFS by IRR: 2.8 months
[1]; exon 11 mutations in combination with exon 13 or exon 14 mutations
  forest plot of PFS by KIT exon 11 mutational subgroups from baseline ctDNA: favor sunitinib
[1]; mutations in KIT exons 9, 13, and 14
  forest plot of PFS by KIT mutational status from baseline ctDNA: favor sunitinib
[1]; Data cut 1
  Median Progression-Free Survival (mPFS): 1.5 months
[2]
  median PFS (independent radiologic review using mRECIST): 6.7 months

## CCn1c(=O)c(-c2cc(NC(=O)Nc3ccccc3)c(F)cc2Br)cc2cnc(NC)cc21 [ripretinib]
[1]; KIT exon 11 and 17 only, exon 11 and 18 only, any exons 11 and 17, any exon 11 and exon 17 or 18
  forest plot of PFS by KIT exon 11 mutational subgroups from baseline ctDNA: favor ripretinib treatment
[1]; [4]
  ORR: 44.4%
  ORR Response Difference (95% CI), ripretinib versus sunitinib: 44.4% (23.0%, 62.7%)
  PFS Hazard Ratio (95% CI), ripretinib versus sunitinib: 0.22 (0.11, 0.44)
[1]; KIT exon 11 and 17 or 18 only (ctDNA), Data cut 1, listed as Ripretinib
  ORR: 44.4%
[1]; [5]
  OS: Not Estimable
  OS Hazard Ratio (95% CI), ripretinib versus sunitinib: 0.34 (0.15, 0.76)
[1]; KIT exon 11 and 17 or KIT exon 11 and 18 mutations
  forest plot of OS by KIT exon 11 mutational subgroups from baseline ctDNA: favors ripretinib treatment
[1]; [6]
  median OS: not estimable
[1]; [7]
  median OS: not estimable
[1]; KIT exon 11 in combination with KIT exon 17 or 18 mutations
  forest plot of ORR by KIT exon 11 mutational subgroups from baseline ctDNA: favors ripretinib treatment
[1]; KIT exon 11 only primary mutation and exon 17 or 18 secondary mutations only
  PFS, ORR and OS versus sunitinib: superior
[1]; [8]
  median OS: not evaluable
[1]; [9]
  median OS: not evaluable
[1]; KIT exon 17 and 18 mutations
  forest plot of OS by KIT mutational status from baseline ctDNA: favors ripretinib treatment
[1]
  median PFS by IRR: 13.8 months
[1]; mutations in KIT exons 17 and 18
  forest plot of PFS by KIT mutational status from baseline ctDNA: favor ripretinib treatment
[1]; Data cut 1
  Median Progression-Free Survival (mPFS): 14.2 months
[1]; populations with KIT exons 11, 17 or 18
  forest plot of ORR by KIT mutational status from baseline ctDNA: favors ripretinib treatment
[1]; [10]
  OS HR, ripretinib versus sunitinib (Cox model): 1.33
  PFS HR, ripretinib versus sunitinib (Cox model): 3.07
[1]; [11]
  OS HR, ripretinib versus sunitinib (Cox model): 2.09
  PFS HR, ripretinib versus sunitinib (Cox model): 0.96
[1]; [12]
  OS HR, ripretinib versus sunitinib (Cox model): 1.91
  PFS HR, ripretinib versus sunitinib (Cox model): 3.27
[1]; [13]
  OS HR, ripretinib versus sunitinib (Cox model): 0.34
  PFS HR, ripretinib versus sunitinib (Cox model): 0.21
[1]; [14]
  OS HR, ripretinib versus sunitinib (Cox model): 1.55
  PFS HR, ripretinib versus sunitinib (Cox model): 2.54
[1]; [15]
  OS HR, ripretinib versus sunitinib (Cox model): 0.63
  PFS HR, ripretinib versus sunitinib (Cox model): 0.97
[1]; [16]
  OS HR, ripretinib versus sunitinib (Cox model): 1.32
  PFS HR, ripretinib versus sunitinib (Cox model): 2.88
[1]; [17]
  OS HR, ripretinib versus sunitinib (Cox model): 2.15
  PFS HR, ripretinib versus sunitinib (Cox model): 0.98
[1]; [18]
  OS HR, ripretinib versus sunitinib (Cox model): 1.88
  PFS HR, ripretinib versus sunitinib (Cox model): 3.41
[1]; [19]
  OS HR, ripretinib versus sunitinib (Cox model): 0.32
  PFS HR, ripretinib versus sunitinib (Cox model): 0.22
[1]; [20]
  OS HR, ripretinib versus sunitinib (Cox model): 1.64
  PFS HR, ripretinib versus sunitinib (Cox model): 2.53
[1]; [21]
  OS HR, ripretinib versus sunitinib (Cox model): 0.78
  PFS HR, ripretinib versus sunitinib (Cox model): 1.02
[2]
  median PFS (independent radiologic review using mRECIST): not reached

## Cc1ccc(NC(=O)c2ccc(CN3CCN(C)CC3)cc2)cc1Nc1nccc(-c2cccnc2)n1 [imatinib]
[3]; adjuvant setting
  2-year relapse-free survival: ~90%
[3]; metastatic setting
  median event-free survival: under 2 years
